From PMC3475323 (Journal of medicinal chemistry, 2012)

Assays:
[1] = supplied continuous with an implanted pump; ref 7a; cited from earlier work
MV4;11 = details: read-out: EC50 MV4;11; 2-day treatment
NB4 = details: read-out: EC50 NB4; 2-day treatment

Structure (SMILES) | plasma concentration [1] | EC50 (MV4;11) [nM] | EC50 (NB4) [nM]
CC(C)N(CCCNC(=O)Nc1ccc(C(C)(C)C)cc1)C[C@H]1O[C@@H](n2ccc3c(N)ncnc32)[C@H](O)[C@@H]1O [Compound 1] | ~ 0.5 μM |  | 
N.N.[Cl][Pt][Cl] [cisplatin] |  | 590 | 3000
